According to patent US20250205242A1, “CDK7 INHIBITORS FOR ANTIVIRAL TREATMENT” (QURIENT CO., LTD., priority 2022, published 2025):

Assays:
[1] = test system: ganciclovir (GCV)-resistant HCMV strain ADP169-GFP314; assay: HCMV-GFP-based antiviral assay, ganciclovir-resistant strain; type: cell-based, human cytomegalovirus
Procedure: A series of laboratory variants of AD169-GFP virus that are resistant to GCV was generated. HFF were infected in 12-well plates at a multiplicity of infection (MOI) of 0.002 and incubated with […] Ganciclovir. GFP expression in infected cells was monitored microscopically, and the supernatants from the positive wells were transferred to fresh cells weekly. Thereby Ganciclovir concentrations were increased stepwise (a […] increase at each step) up to the point where total virus replication became critical and resistant virus was grown in individual wells. Using supernatants from these wells, two rounds of plaque purifications were performed in HFF. Finally, Ganciclovir-resistant viral clones (AD169-GFP314) which were able to replicate in the presence of […] GCV were isolated.
HFF were cultured to 90% confluency in 12-well plates and used for infection with AD169-GFP HCMV-virus at a tissue culture infective dose of 0.5 (GFP-TCID50 0.5, referring to an MOI of 0.002 as determined by plaque assay titration). Virus inoculation was performed for 90 min at 37° C. with occasional shaking before virus was removed and the cell layers were rinsed with phosphate-buffered saline (PBS). Then infected cell layers were incubated with 2.5 ml of MEM containing 5% (vol/vol) fetal calf serum with or without a dilution of one of the respective test compounds. Infected cells were incubated at 37° C. under a 5% CO2 atmosphere for 7 days. For lysis, […] of lysis buffer (25 mM Tris [pH 7.8], 2 mM dithiothreitol [DTT], 2 mM trans-1,2-diaminocyclohexane-N,N,N9,N9-tetraacetic acid, 1% Triton X-100, 10% glycerol) was added to each well and incubated for 10 min at 37° C., followed by a 30-min incubation at room temperature on a shaker. Lysates were centrifuged for 5 min at 15,000 rpm in an Eppendorf centrifuge to remove cell debris. […] The […] of compounds against virus replication was determined by EC50 (50% effective concentration).

[2] = test system: HCMV strain AD169-GFP; assay: HCMV-GFP-based antiviral assay in HFF; type: cell-based, human cytomegalovirus
[3] = test system: HPV11; assay: HPV genome replicon assay (NanoLuc) in C-33 A cells, HPV11; type: cell-based, Human Papilloma Virus; settings: reference compound; value within the prescribed range
Source text: C-33 A, […] were obtained from ATCC and maintained in standard growth medium of MEM with Earl's salts supplemented with 10% FBS (Hyclone, Inc. Logan UT), L-glutamine, penicillin, and gentamycin.
HPV genome replicon assay was developed and expresses the essential E1 and E2 proteins from the native promoter. The E2 origin binding protein interacts with the virus origin of replication and recruits the E1 replicative helicase which unwinds the DNA and helps to recruit the cellular DNA replication machinery (including DNA polymerases, type I and type II topoisomerases, DNA ligase, single-stranded DNA binding proteins, proliferating cell nuclear antigen). The replication complex then drives the amplification of the replicon which can be assessed by the expression of a destabilized NanoLuc reporter gene carried on the replicon. In the HPV11 assay, the replicon (pMP619) is transfected into C-33 A cells grown as monolayers in 384-well plates. At 48 h post transfection, the enzymatic activity of the destabilized NanoLuc reporter is assessed with NanoGlo reagent. […] Analysis of HPV genome replication in specific types of HPV, such as HPV6, HPV11, or HPV31 is performed with plasmid systems that utilize each HPV type.

SMILES | antiviral effectiveness against viruses resistant to nucleobase analogue drugs [1] | antiviral effectiveness against non-resistant viruses [2] | EC50 [3] [µM]
C=C(F)C(=O)Nc1ccc2c(-c3ccccc3CNc3nc(OC4CCC(C)(C)NC4)nc4c(C(C)C)cnn34)nccc2c1 (stereo not shown) [Compound 177] | highly effective | highly effective | –
C=C(F)C(=O)Nc1ccc2c(-c3ccccc3CNc3nc(NC4CCC(C)(C)NC4)nc4c(C(C)C)cnn34)nccc2c1 (stereo not shown) [Compound 175] | highly effective | highly effective | –
C=C(F)C(=O)Nc1ccc2c(-c3ccccc3CNc3nc(N[C@@H]4CCC(C)(C)NC4)nc4c(C(C)C)cnn34)nccc2c1 [Compound 174] | highly effective | highly effective | –
Nc1nc2c(ncn2CCOCP(=O)(O)O)c(=O)[nH]1 [PMEG] | – | – | 2 to 9.2
